Values joined by “and” are separate entries in the source; they are usually repeats but may differ in a detail not shown here. Equal values may be shown once.
What was measured:
Format in all cases: functional, Homo sapiens
Set-up in all cases: dose or concentration left out as unconfirmed
Colon cancer organoid [1] = assay: Image-based profiling of donated chemical probes and chemogenomic kinase set in O09 CRC organoid. Image analysis is performed on the sum area metric, and the data were normalized to the DMSO control. After imaging the organoid viability is measured using the OneGloEX Luciferase Assay System. The normalized viability data and sum area are reported.
Colon cancer organoid [2] = assay: Image-based profiling of donated chemical probes and chemogenomic kinase set in O21 CRC organoid. Image analysis is performed on the sum area metric, and the data were normalized to the DMSO control. After imaging the organoid viability is measured using the OneGloEX Luciferase Assay System. The normalized viability data and sum area are reported.
Colon cancer organoid [3] = assay: Image-based profiling of donated chemical probes and chemogenomic kinase set in O06 CRC organoid. Image analysis is performed on the sum area metric, and the data were normalized to the DMSO control. After imaging the organoid viability is measured using the OneGloEX Luciferase Assay System. The normalized viability data and sum area are reported.

SMILES | Cell Viability (Colon cancer organoid [1]; Replication number 1) | Cell Viability (Colon cancer organoid [1]; Replication number 2) | Cell Viability (Colon cancer organoid [2]; Replication number 1) | Cell Viability (Colon cancer organoid [2]; Replication number 2) | Cell Viability (Colon cancer organoid [3]; Replication number 1) | Cell Viability (Colon cancer organoid [3]; Replication number 2)
Cc1c(Oc2ccc(F)cc2)c(OC(C)C)nn1-c1ccc(C2CC2)cn1 [IPP/CNRS-A019] | 105.275% and 104.102% | 106.079% and 88.8184% | 82.2152% and 84.0306% | 88.4065% and 90.7546% | 86.662% and 99.3522% | 111.4% and 120.615%
CC(=O)c1cc(-c2ccccc2OCC2CC2)c2ncccn12 | 135.678% and 108.037% | 170.672% and 99.2081% | 119.426% and 104.637% | 103.612% and 93.9737% | 193.281% and 129.503% | 159.696% and 98.6989%
COc1cc(Nc2nc(C)cc(-c3cnn4nc(OC)ccc34)n2)cc(C(F)(F)F)c1 | 104.965% and 91.5636% | 103.466% and 113.093% | 100.392% and 88.9748% | 126.257% and 100.876% | 101.755% and 109.64% | 94.2101% and 91.9205%
Cn1cc(-c2ccc3occ(-c4cccc(-c5ccncc5)c4)c3n2)cn1 | 82.6672% and 85.8718% | 87.0318% and 75.2306% | 96.3699% and 105.976% | 129.888% and 115.611% | 105.822% and 114.901% | 68.0406% and 107.425%
CC(C)Oc1ccc(-c2c[nH]cc2CN(C)CCN)cc1 | 64.4727% and 62.1329% | 85.7978% and 86.9496% | 91.7863% and 65.8393% | 93.2232% and 70.8831% | 21.9267% and 37.2081% | 18.5621% and 35.8471%
Cc1nc(C2CCN(C(=O)c3ccc(OC(F)(F)F)cc3N)CC2)c2ncc(N3CCN(C)CC3)cc2n1 [BAY-693] | 87.1033% and 97.7241% | 88.4972% and 107.653% | 120.305% and 115.678% | 95.3265% and 86.6757% | 107.628% and 117.814% | 129.663% and 123.258%
COc1ccc2c(c1)O[C@@H](c1ccc(OC)c(OC)c1)C[C@H]2NC(=O)C1(c2ccc3c(c2)OC(F)(F)O3)CC1 [A-1596586] | 77.2703% and 96.7863% | 76.2669% and 106.86% | 105.739% and 116.224% | 98.6022% and 86.1659% | 114.211% and 123.158% | 130.418% and 120.375%
CN(C)[C@@H]1CCN(c2cc(-c3ccccc3)nc3ccnn23)C1 [(R)-ZINC-3573] | 69.8572% and 93.5976% | 61.7883% and 100.515% | 105.256% and 112.95% | 102.245% and 84.1264% | 99.7285% and 119.514% | 116.173% and 112.206%
Cc1ccccc1Oc1cc(-n2c(=O)cc(C(F)(F)F)[nH]c2=O)c2ccccc2c1Cl [BAY-069] | 112.474% and 107.103% | 148.882% and 102.498% | 99.7794% and 121.135% | 101.27% and 93.8137% | 107.213% and 122.915% | 117.719% and 113.888%
Cc1nnc2c3ccccc3c(N[C@@H](C)[C@H](c3ccccc3)N(C)C)nn12 | 148.648% and 110.587% | 133.595% and 98.3529% | 132.945% and 134.618% | 79.559% and 84.8449% | 129.952% and 136.027% | 163.32% and 118.295%
CCn1cc(-c2cccc(C(F)(F)F)c2)c2sc(C(=N)NC3CCS(=O)(=O)CC3)cc2c1=O | 136.882% and 100.386% | 86.2111% and 86.0944% | 121.201% and 130.503% | 111.866% and 107.936% | 179.562% and 135.302% | 139.17% and 96.3091%
COc1ccc(Cn2ccc3ccc(C(=O)NO)cc32)cc1 | 110.805% and 94.5904% | 117.665% and 84.3839% | 103% and 112.867% | 100.715% and 96.6587% | 150.267% and 98.5772% | 160.829% and 118.056%
CN(C(=O)c1ccccc1)c1cc(N(C)c2ccc3c(c2)CCc2ccc(C(=O)NCCN4CCOCC4)cc2C3=O)ccc1F [FM-743] | 89.1217% and 99.5999% | 73.0037% and 91.594% | 111.27% and 106.402% | 83.0534% and 97.3827% | 90.1876% and 101.781% | 105.862% and 118.933%
Cc1ccc2[nH]c(CNCCCc3ccncc3)cc(=O)c2c1 [UCSF924NC] | 130.653% and 96.5987% | 94.8728% and 93.7748% | 94.0995% and 104.765% | 78.5864% and 74.4392% | 91.5293% and 106.883% | 122.187% and 128.063%
CC1=C(C(=O)Nc2cc3cn[nH]c3cc2F)C(c2ccc(C(F)(F)F)cc2)CC(=O)N1 (stereo unspecified) | 137.27% and 97.7404% | 200.569% and 118.509% | 120.369% and 99.2335% | 116.368% and 107.089% | 108.292% and 112.394% | 105.064% and 92.1337%
O=C(/C=C/N1C[C@H]2C[C@@H]1CN2c1ccccn1)c1ccccc1O | 108.639% and 102.241% | 93.5613% and 97.7827% | 136.807% and 131.679% | 93.5448% and 99.3437% | 142.277% and 136.268% | 180.564% and 107.78%
CN(C)[C@H]1CN(C2CCc3cccc(F)c32)C[C@@H]1c1ccc(N2CCN(S(C)(=O)=O)CC2)cc1 (stereo partly specified) | 201.275% and 108.733% | 175.885% and 109.186% | 78.9326% and 94.0562% | 85.3871% and 90.7518% | 159.825% and 136.993% | 128.982% and 128.571%
Cc1sc2c(c1C)C(c1ccc(Cl)cc1)=N[C@H](CC(=O)OC(C)(C)C)c1nnc(C)n1-2 | 84.3348% and 91.1128% | 66.0131% and 88.6601% | 103.643% and 116.982% | 106.671% and 110.621% | 124.069% and 114.282% | 126.933% and 90.5736%
CCc1ccccc1C(=O)Nc1n[nH]c2c(C)c(F)c(C3C(C#N)=C(C)N(C)C(C)=C3C#N)cc12 [BAY-3827] | 62.8379% and 77.8869% | 39.4727% and 62.2125% | 104.538% and 100.129% | 99.5085% and 100.51% | 111.052% and 125.293% | 118.254% and 98.7859%
CCCc1cc(C)[nH]c(=O)c1CNC(=O)c1cc(-c2ccnc(N3CCN(C)CC3)c2)cc2c1cnn2C(C)C | 138.622% and 115.688% | 134.993% and 114.602% | 85.4576% and 83.4749% | 100.02% and 92.3628% | 109.583% and 102.443% | 141.979% and 116.144%
Cc1sc2c(c1C)C(c1ccc(Cl)cc1)=N[C@@H](CC(=O)OC(C)(C)C)c1nnc(C)n1-2 | 38.4274% and 33.3849% | 47.2906% and 27.9949% | 79.5251% and 85.2384% | 67.4511% and 80.5489% | 19.6589% and 56.2953% | 20.5614% and 51.6198%

— ChEMBL document CHEMBL5724558, “Image-based profiling of drug vulnerabilities in CRC organoids” (2024)
